# Reference: patent US20190282550A1, “METHOD OF TREATMENT” (The University of Melbourne, priority 2016, published 2019)
# What was measured:
# [1] = test system: first trimester placenta explants; assay: First trimester placenta explants, M30 cytodeath immunohistochemistry; format: cell-based, human; details: compared to methotrexate±gefitinib
# Experimental: First trimester placenta explants are prepared and treated with the same drugs as above. After culture cells are fixed in paraformadehyde and immunohistochemistry staining performed with an M30 cytodeath antibody (detects apoptotic cell death). hCG secretion in to the cell culture media will be measured.
# JEG3 = assay: MTS cell viability assay, JEG3 placenta cell line; format: cell-based
# Experimental: (§1) The ability for vinorelbine to reduce placenta cell viability was assessed in two placenta cell lines (A;HTR8, B; JEG3) using a MTS cell viability assay.
# HTR8 cells [2] = test system: HTR8 cells
# placenta cells = assay: Apoptosis versus necrosis in placenta cells; format: cell-based
# Experimental: Apoptosis incites less of an inflammatory response that may otherwise injure local tissues. In this Example, the number of apoptotic cells after treatment with vinorelbine is assessed.
# placenta cells (JEG3) = assay: Mouse xenograft model, placenta cells (JEG3) grafted subcutaneously
# [3] = oral, 60 mg/m^2 once a week; cited from earlier work
# [4] = Mouse fertility breeding experiments; details: 5 mg/kg intravenous to female mice 4 weeks prior to breeding
# Experimental: Vinorelbine is administered by tail vein injection to wild type swiss mice. The drug (or vehicle controls) is administered by tail vein twice weekly (i.e. approximately mirroring the frequency of dosing for the xenograft studies). The middle dose that was effective in regressing tumor size (2.5 mg/kg) is to be used. After one month the mice are paired for breeding. It is proposed to sacrifice mice at about day 19 of pregnancy.
# Parameters measured include 1) Number of fetuses' and implantations sites; 2) fetal crown rump length; 3) fetal weight; 4) placenta weights.
# human Fallopian tubes = assay: Human Fallopian tubes treated ex vivo, western blot of apoptotic markers
# Excerpt: Fallopian tube cells are obtained from (non pregnant) women undergoing hysterectomy and explants prepared as previously published (Shaw et al. (2011) Am J Pathol 178(1):253-60). […] Investigators stain the explants with M30 antibody by immunohistochemistry (measures late apoptosis) and obtain tissue lysates and perform western blot to measure the following proteins involved in apoptosis (Elmore (2007) supra): Bcl-2, Bax, Bid and Bim and quantify by densiometric analysis.
# Human Fallopian tubes were obtained at hysterectomy (from women of child-bearing age).
# [5] = test system: primary first trimester placenta cells; assay: MTS cell viability assay, primary first trimester placenta cells (FIG. 1); format: cell-based, human
# Experimental: For in vitro experiments, methotrexate and vinorelbine are administered at different doses (from 10 nM to 100,000 nM). When used, gefitinib is combined with methotrexate at 8 μM. Cells/tissues are treated for 24 hours and 48 hours. Methodology for the following standard techniques are: Tissue culture (Nilsson et al. (2013) Obstet Gynecol 122(4):737-44), RNA, qPCR, immunohistochemistry (Nilsson et al. (2013) supra; Onda et al. (2015) Hypertension:10.1161/hyptertensionaha.114.04781; Kaitu'u-Lino et al. Pregnancy Hypertension: An International Journal of Women's Cardiovascular Health 2014 placenta explants (Brownfoot et al. (2015) Hypertension), FACs sorting (Nilsson et al. (2013) supra), trophoblast purification ((Nilsson et al. (2013) supra; Onda et al. (2015) supra; Kaitu'u Lino et al. (2014) supra) and western blots (Onda et al. (2015) supra).
# First trimester placenta tissue are obtained from women who are undergoing a termination of pregnancy. Placenta cells are purified as previously described (Nilsson et al. (2013) supra). They are treated with different doses (10-100,000 nM) of vinorelbine, methotrexate, methotrexate+gefitinib, gefitinib alone (and vehicle control). Cell viability is measured by MTS assay (see FIG. 1). To compare the relative potencies, the EC50 is calculated for the drugs (dose that induces 50% cell death).
# VB doses were 10,000 times lower than MXT.
# HTR8 cells [6] = assay: FACs analysis of cell cycle progression; format: cell-based; details: 1 μM and 10 μM
# Experimental: The effect of Vinorelbine on cell cycle progression in HTR8 cells was assessed using FACs analysis (FIGS. 8A through G). […] The proportion of cells in G1, S and G2 is graphically represented in n=3 replicates (D).
# HTR8 [7] = assay: xCELLigence placenta cell proliferation; format: cell-based; details: for proliferation at 48 h post plating: compared to control
# Experimental: The effect of vinorelbine on placenta cell (HTR8) proliferation was assessed using xCELLigence (C).
# HTR8 [8] = assay: MTS cell viability assay, HTR8 placenta cell line; format: cell-based
# Experimental: as §1
# [9] = increasing doses, intravenously, vs. vehicle
# [10] = western blot densitometry, n=3 tubes
smiles,measurement,setting,value
CCC1=C[C@@H]2CN(C1)Cc1c([nH]c3ccccc13)[C@@](C(=O)OC)(c1cc3c(cc1OC)N(C)[C@H]1[C@@](O)(C(=O)OC)[C@H](OC(C)=O)[C@]4(CC)C=CCN5CC[C@]31[C@@H]54)C2 [vinorelbine],M30 staining of placenta explants,[1],more intense M30 staining of placenta explants at a lower doses
same,cell viability,JEG3,significant dose dependent reduction in cell viability
same,percentage of dead cells,HTR8 cells [2],No significant changes
same,percentage of live HTR8 cells,HTR8 cells [2],significantly reduced
same,percentage of apoptotic HTR8 cells,HTR8 cells [2]; Annexin V expression,significantly increased
same,mode of placenta cell death,placenta cells,mainly by apoptosis rather than necrosis
same,serum human chorionic gonadotropin (hCG) levels,placenta cells (JEG3); [9],significantly reduced
same,tumor volume over time,placenta cells (JEG3); [9],dose dependently reduced tumor volume over time
same,tumor weight,placenta cells (JEG3); [9],significantly reduced tumor weight
same,regressing placenta cells in xenografted SCID mice,"placenta cells (JEG3); proposed, compared to methotrexate±gefitinib",more effective than methotrexate±gefitinib
same,neutropenia occurrence,[3],11%
same,crown to rump length,[4],did not alter
same,fetal weight,[4],did not alter
same,fetal/placenta ratio,[4],did not alter
same,litter size,[4],did not alter
same,markers of apoptosis in human Fallopian tubes,human Fallopian tubes; preliminary data,does not upregulate markers of apoptosis
same,BAX protein expression,human Fallopian tubes; [10],no effect
same,BCL 2 protein expression,human Fallopian tubes; [10],no effect
same,inducing death of primary first trimester placenta cells,[5]; compared to methotrexate±gefitinib,significantly more effective in inducing death
same,potency relative to methotrexate,[5]; placenta cell death,"1,000 to 10,000 times"
same,cell cycle progression,HTR8 cells [6],"inhibits cell cycle progression, with cells arrested in the G2 phase of mitosis"
same,cells halted at G2,"HTR8 cells [6]; compared to control, n=3 replicates",significantly more cells halted at G2
same,proliferation at 48 h post plating,HTR8 [7],"proliferation was reduced at 1, 10 and 100 μM"
same,HTR8 proliferation,"HTR8 [7]; xCELLigence, over time",reduced HTR8 proliferation in a dose-dependent manner
same,cell viability,HTR8 [8],significant dose dependent reduction in cell viability
CN(Cc1cnc2nc(N)nc(N)c2n1)c1ccc(C(=O)N[C@@H](CCC(=O)O)C(=O)O)cc1 [methotrexate],proliferation at 48 h post plating,HTR8 [7],no significant effect
